# Reference: patent publication US20140135327A1, “N- (2 -AMINOPHENYL) BENZAMIDE DERIVATIVES AS HISTONE DEACETYLASE INHIBITORS” (CANCER RESEARCH TECHNOLOGY LIMITED, priority 2011, published 2014)
# How the values were obtained:
# HDAC 3 = HDAC 3 (Homo sapiens, UniProt O15379); test: Caliper HDAC inhibitor profiling assay (microfluidic mobility-shift), HDAC 3; type: biochemical; conditions: 1 hour at room temperature, read-out: IC50 (μM) HDAC3
# Procedure: (§1) The activity of the compounds of the invention against HDAC 3 (Class I) and HDAC 6 (Class II) can be determined using the Caliper Life Sciences HDAC inhibitor profiling assay, which utilises microfluidic mobility-shift detection.
# (§2) Reaction buffer: 25 mM Tris/Cl, pH 8.0, 137 mM NaCl, 2.7 mM KCl, 1 mM MgCl2, 0.1 mg/ml BSA (fatty acid free).
# (§3) Stop Buffer: 100 mM HEPES, pH 7.5, 10 mM EDTA, 0.04% Brij-35, 0.25% CR-3, and 2.5 μM Trichostatin A.
# (§4) Stopped reactions were assembled in microtiter plate wells by adding 1 μL of the inhibitor compound in DMSO, 15 μL 2× Enzyme, and 15 μL 2× peptide. The reactions were incubated for 1 hour at room temperature, stopped with the addition of 45 μL Stop Solution, and read on the LabChip EZ Reader®. The curves were fit with sigmoidal dose response algorithm using GraphPad Prism.
# HDAC 6 = biological target: T1, HDAC 6 (Homo sapiens, UniProt Q9UBN7); test: Caliper HDAC inhibitor profiling assay (microfluidic mobility-shift), HDAC 6; type: biochemical; conditions: 1 hour at room temperature, read-out: IC50 (μM) HDAC6
# T1 sequence (Q9UBN7 1-1215): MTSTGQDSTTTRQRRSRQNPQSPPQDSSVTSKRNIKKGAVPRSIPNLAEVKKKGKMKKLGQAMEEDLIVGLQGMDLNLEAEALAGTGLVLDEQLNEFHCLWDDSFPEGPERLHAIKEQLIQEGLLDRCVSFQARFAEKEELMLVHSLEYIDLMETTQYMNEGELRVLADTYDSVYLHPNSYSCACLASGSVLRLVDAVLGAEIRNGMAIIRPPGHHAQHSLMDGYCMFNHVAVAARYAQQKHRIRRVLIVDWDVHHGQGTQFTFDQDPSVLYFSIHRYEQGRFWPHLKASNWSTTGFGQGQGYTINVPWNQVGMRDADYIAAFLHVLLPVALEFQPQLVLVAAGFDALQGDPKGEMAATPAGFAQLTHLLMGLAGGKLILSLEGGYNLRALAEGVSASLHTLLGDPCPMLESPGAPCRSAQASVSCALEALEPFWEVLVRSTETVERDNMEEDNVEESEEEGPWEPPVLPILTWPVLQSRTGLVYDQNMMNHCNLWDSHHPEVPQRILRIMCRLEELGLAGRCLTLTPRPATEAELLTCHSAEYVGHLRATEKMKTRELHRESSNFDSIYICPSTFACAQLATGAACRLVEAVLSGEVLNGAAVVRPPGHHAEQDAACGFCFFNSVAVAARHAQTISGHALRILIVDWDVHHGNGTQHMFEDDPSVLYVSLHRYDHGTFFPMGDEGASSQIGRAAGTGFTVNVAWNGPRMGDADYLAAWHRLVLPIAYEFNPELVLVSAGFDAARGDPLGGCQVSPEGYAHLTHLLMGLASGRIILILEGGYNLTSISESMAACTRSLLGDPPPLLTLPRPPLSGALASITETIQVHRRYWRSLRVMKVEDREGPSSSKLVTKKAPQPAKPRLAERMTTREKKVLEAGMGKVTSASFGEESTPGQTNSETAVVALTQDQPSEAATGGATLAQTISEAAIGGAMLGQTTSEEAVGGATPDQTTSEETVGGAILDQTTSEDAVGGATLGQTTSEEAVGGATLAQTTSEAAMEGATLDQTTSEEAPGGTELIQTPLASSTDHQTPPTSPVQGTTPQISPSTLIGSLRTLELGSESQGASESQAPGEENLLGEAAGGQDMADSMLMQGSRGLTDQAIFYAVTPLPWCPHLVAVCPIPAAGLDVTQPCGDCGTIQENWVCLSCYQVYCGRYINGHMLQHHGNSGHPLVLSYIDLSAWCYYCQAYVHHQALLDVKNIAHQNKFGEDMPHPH
# Procedure: as §1, §2, §3, §4
# HDAC 3, sequence (O15379 whole entry, species assumed): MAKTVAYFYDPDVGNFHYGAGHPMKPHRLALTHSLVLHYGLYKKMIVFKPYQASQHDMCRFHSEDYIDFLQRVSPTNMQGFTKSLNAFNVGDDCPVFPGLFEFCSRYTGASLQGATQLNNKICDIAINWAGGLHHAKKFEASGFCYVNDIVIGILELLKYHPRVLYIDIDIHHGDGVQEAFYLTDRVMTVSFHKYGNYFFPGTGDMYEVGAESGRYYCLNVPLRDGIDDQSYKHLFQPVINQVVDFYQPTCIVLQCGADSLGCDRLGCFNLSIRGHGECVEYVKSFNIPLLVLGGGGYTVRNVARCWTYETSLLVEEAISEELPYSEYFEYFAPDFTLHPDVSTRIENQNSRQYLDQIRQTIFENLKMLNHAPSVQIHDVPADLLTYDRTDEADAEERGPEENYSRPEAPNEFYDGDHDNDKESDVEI
# HDAC 3, sequence (Q9Y618 395-489 partner limits assumed, species assumed): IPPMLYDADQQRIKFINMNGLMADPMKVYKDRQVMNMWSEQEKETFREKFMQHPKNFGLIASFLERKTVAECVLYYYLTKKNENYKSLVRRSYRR
IC50 (HDAC 3),IC50 (HDAC 6),melting point,SMILES
0.89 µM,> 10 µM,111 to 113 °C,"C=C1CN(Cc2ccc(C(=O)Nc3ccccc3N)cc2)C(CC(=O)OCC)c2ccccc21 (stereo not drawn) [Example 1, Ethyl [2-(4-{[(2-aminophenyl)amino]carbonyl}benzyl)-4-methylene-1,2,3,4-tetrahydroisoquinolin-1-yl]acetate]"
0.51 µM,> 10 µM,89 to 91 °C,"C=C1CN(Cc2ccc(C(=O)Nc3ccccc3N)cc2)C(CC(=O)N2CCCCC2)c2ccccc21 (stereo not drawn) [Example 2, N-(2-Aminophenyl)-4-{[4-methylene-1-(2-oxo-2-piperidin-1-ylethyl)-3,4-dihydroisoquinolin-2(1H)-yl]methyl}benzamide]"
0.98 µM,> 10 µM,151 to 153 °C,"C=C1CN(Cc2ccc(C(=O)Nc3ccccc3N)cc2)C(CC(=O)OC)c2ccccc21 (stereo not drawn) [Example 3, Methyl [2-(4-{[(2-aminophenyl)amino]carbonyl}benzyl)-4-methylene-1,2,3,4-tetrahydroisoquinolin-1-yl]acetate]"
0.26 µM,> 10 µM,99 to 101 °C,C=C1CN(Cc2ccc(C(=O)Nc3ccccc3N)cc2)C(CC(=O)N2CCOCC2)c2ccccc21 (stereo not drawn) [Example 4]
2.7 µM,> 10 µM,,"C=C1CN(Cc2ccc(C(=O)Nc3ccccc3N)cc2)C(CC(=O)c2ccccc2)c2ccccc21 (stereo not drawn) [Example 5, N-(2-Aminophenyl)-4-{[4-methylene-1-(2-oxo-2-phenylethyl)-3,4-dihydroisoquinolin-2(1H)-yl]methyl}benzamide]"
0.31 µM,> 10 µM,93 to 95 °C,"C=C1CN(Cc2ccc(C(=O)Nc3ccccc3N)cc2)C(CC#N)c2ccccc21 (stereo not drawn) [Example 6, N-(2-Aminophenyl)-4-{[1-(cyanomethyl)-4-methylene-3,4-dihydroisoquinolin-2(1H)-yl]methyl}benzamide]"
0.35 µM,> 10 µM,135 to 137 °C,"C=C1CN(Cc2ccc(C(=O)Nc3ccccc3N)cc2)C(CC(=O)Nc2ccccc2N)c2ccccc21 (stereo not drawn) [Example 8, N-(2-Aminophenyl)-4-{[1-{2-[(2-aminophenyl)amino]-2-oxoethyl}-4-methylene-3,4-dihydroisoquinolin-2(1H)-yl]methyl}benzamide]"
0.67 µM,> 10 µM,,"C=C1CN(Cc2ccc(C(=O)Nc3ccccc3N)cc2)C(CC(=O)NCCO)c2ccccc21 (stereo not drawn) [Example 10, N-(2-Aminophenyl)-4-{[1-{2-[(2-hydroxyethyl)amino]-2-oxoethyl}-4-methylene-3,4-dihydroisoquinolin-2(1H)-yl]methyl}-benzamide]"
0.56 µM,> 10 µM,,"C=C1CN(Cc2ccc(C(=O)Nc3ccccc3N)cc2)C(CC(=O)N2CCN(C)CC2)c2ccccc21 (stereo not drawn) [Example 11, N-(2-Aminophenyl)-4-{[4-methylene-1-[2-(4-methylpiperazin-1-yl)-2-oxoethyl]-3,4-dihydroisoquinolin-2(1H)-yl]methyl}benzamide]"
0.27 µM,> 10 µM,196 to 198 °C,"C=C1CN(Cc2ccc(C(=O)Nc3ccccc3N)cc2)C(=O)c2ccc(C(=O)OC)cc21 [Example 13, Methyl 2-(4-{[(2-aminophenyl)amino]carbonyl}benzyl)-4-methylene-1-oxo-1,2,3,4-tetrahydroisoquinoline-6-carboxylate]"
0.23 µM,> 10 µM,172 to 174 °C (dec.),"C=C1CN(Cc2ccc(C(=O)Nc3ccccc3N)cc2)C(=O)c2ccc(C(=O)NCCN)cc21 [Example 14, N-(2-Aminoethyl)-2-(4-{[(2-aminophenyl)amino]carbonyl}benzyl)-4-methylene-1-oxo-1,2,3,4-tetrahydroisoquinoline-6-carboxamide]"
1.4 µM,> 10 µM,213 to 215 °C,C=C1CN(S(=O)(=O)c2ccc(C(=O)Nc3ccccc3N)cc2)C(CC#N)c2ccccc21 (stereo not drawn) [Example 15]
